Measured values published in US20260008818A1, “CYCLIC PEPTIDE OR SALT THEREOF, AND USES THEREOF” (FUJIFILM Corporation, priority 2023, published 2026).
Ends that are not written are not given here.

Assays:
[1] = system: BaF3 cells stably expressing FGFR (porcine); test: Cell proliferation-promoting effect on BaF3 cells stably expressing porcine FGFR; type: cell-based; details: BaF3 with porcine FGFR; viable cells at the addition concentration (0.001 to 10 nmol/L) with largest number; 2 nights
Protocol: (§1) The FGFR phosphorylation ability of the cyclic peptide complex was evaluated using the BaF3 cell proliferation-promoting effect in which FGFR was stably expressed.
(§2) BaF3 cells stably expressing FGFR were established by introducing a vector (human: Gene Copocia, EX-Y2820-M67, bovine: sequence of Accession No. A4IFL5 was introduced into pCDNA3.1/Hygro(+) Mammalian Expression Vector (Thermo, V87020), porcine: sequence of Accession No. A0A8DIE4H1 was introduced into pCDNA3.1/Hygro(+) Mammalian Expression Vector (Thermo, V87020), and avian: sequence of Accession No. P21804 was introduced into pCDNA3.1/Hygro(+) Mammalian Expression Vector (Thermo, V87020)) into which FGFR gene had been incorporated, into BaF3 cells using NucleoFector (Lonza) and performing drug selection of cells into which the FGFR gene had been introduced using hygromycin.
(§3) The evaluation of the proliferation-promoting effect of BaF3 cells in which FGFR is stably expressed was performed by the following method. First, RPMI-1640 with L-Glutamine and Phenol Red (FUJIFILM Wako Pure Chemical Corporation, 189-02025) and Fetal Bovine Serum (Thermo, 10270-106) were mixed at a volume ratio of 9:1, and then heparin (STEM CELL, 07980) was added thereto such that the final concentration thereof was 8 μg/mL, thereby preparing a culture medium for evaluation (hereinafter, described as RPMI (10% FBS) medium). Next, the BaF3 cells in which FGFR had been stably expressed were washed twice with RPMI (10% FBS) culture medium, suspended in RPMI (10% FBS) culture medium in which the cyclic peptide complex had been dissolved to a final concentration of 0.001 to 10 nmol/L, and seeded in a 384-well plate. In this case, a condition in which the cyclic peptide complex was not added as a negative control was prepared. After culturing at 37° C. (5% CO2) for 2 nights, Hoechst 33342, Trihydrochloride, Trihydrate—10 mg/mL Solution in Water (Thermo, H3570), -Cellstain (registered trademark)-Calcein-AM solution (1 mg/mL DMSO solution) (DOJINDO, C396), and -Cellstain (registered trademark)-PI solution (DOJINDO, P378) were each added to RPMI (10% FBS) culture medium in a volume amount of 1/1,000 at the final concentration, and live/dead staining of the cells were performed by allowing to stand at room temperature for 1 hour, and imaging was performed using a confocal microscope (Yokogawa Electric Corporation, CQ1). The number of viable cells was calculated from the imaging data, and the cell proliferation-promoting effect was evaluated according to the following evaluation criteria. The number of viable cells in the negative control was about 20 cells/well. The evaluation result preferably satisfies the evaluation criteria A, B, or C. […]

[2] = system: BaF3 cells stably expressing FGFR (avian); test: Cell proliferation-promoting effect on BaF3 cells stably expressing avian FGFR; type: cell-based; details: BaF3 with avian FGFR; viable cells at the addition concentration (0.001 to 10 nmol/L) with largest number; 2 nights
Protocol: as §1, §2, §3

[3] = system: BaF3 cells stably expressing FGFR (human); test: Cell proliferation-promoting effect on BaF3 cells stably expressing human FGFR; type: cell-based; details: BaF3 with human FGFR; viable cells at the addition concentration (0.001 to 10 nmol/L) with largest number; 2 nights
Protocol: as §1, §2, §3

[4] = system: BaF3 cells stably expressing FGFR (bovine); test: Cell proliferation-promoting effect on BaF3 cells stably expressing bovine FGFR; type: cell-based; details: BaF3 with bovine FGFR; viable cells at the addition concentration (0.001 to 10 nmol/L) with largest number; 2 nights
Protocol: as §1, §2, §3

[5] = Stability of cyclic peptide after alkali treatment, LC; type: physicochemical; details: alkali treatment: 0.5 mol/L sodium hydroxide aqueous solution, room temperature, 3 hours
Protocol: In addition, the stability of the cyclic peptide (SEQ ID NO: 382) containing a cysteine residue in the cyclized portion and the cyclic peptide (SEQ ID NO: 374) containing a homocysteine residue in the cyclized portion was compared under the following alkali treatment, which is a more severe condition.
The alkali treatment was performed by the following method. 25 μL of a 0.2 mg/mL cyclic peptide aqueous solution was prepared, 58.8 μL of a 0.5 mol/L sodium hydroxide aqueous solution was added to the aqueous solution, and the mixture was incubated at room temperature for 3 hours to obtain an aqueous solution of the cyclic peptide alkali-treated. The total area of all the peaks in LC/MS of the cyclic peptide before the alkali treatment was set to 100%, and the proportion of the total area of all the peaks in LC/MS of the aqueous solution of the cyclic peptide alkali-treated was determined to calculate the residual rate of the cyclic peptide.
The LC conditions used for the evaluation of molecular stability are the same as those in the measurement of the above-described cyclic peptide treated with a reducing agent.

[6] = system: hMSC-Human Mesenchymal Stem Cells; test: Effect of maintaining MSC undifferentiated potency (gene expression); type: cell-based
Protocol: The effect of maintaining mesenchymal stem cell (MSC) undifferentiated potency of the cyclic peptide complex was evaluated.
MSC was prepared in the same manner as in Example 7.
The evaluation of the effect of maintaining the MSC undifferentiated potency was performed by the following method. First, a culture medium (hereinafter, referred to as a custom culture medium) in which bFGF was removed from PRIME-XV MSC Expansion XSFM (FUJIFILM Irvine Scientific, Inc., 91149) was prepared. Next, Prime-XV Human Fibronectin (FUJIFILM Irvine Scientific, Inc., 31002) was dissolved in PBS (Fujifilm Wako Pure Chemical Corporation, 164-23551), 2 μg/cm^2 of the solution was added to a 12-well plate used for proliferation, and the 12-well plate was allowed to stand at room temperature for 3 hours to coat the 12-well plate with fibronectin. Thereafter, the MSCs subjected to the subculture were peeled using Tryple Express (Thermo, 12604-013), washed once with a custom culture medium, suspended in a custom culture medium in which a cyclic peptide complex or bFGF (R&D Systems, 3718-GMP) was diluted to final concentrations of 3 nmol/L and 1 nmol/L, and seeded on a 12-well plate coated with fibronectin. In this case, conditions in which the cyclic peptide complex and bFGF were not added as a negative control were prepared. After culturing at 37° C. (5% CO2) for 2 nights, the culture medium was replaced by removing the supernatant of the culture medium and adding the same amount of a culture medium prepared to have the same composition as the removed culture medium. After further culturing at 37° C. (5% CO2) for 2 nights, RNA was extracted using an RNeasy Plus Mini Kit (Qiagen, 74136) according to the manufacturer's protocol. […] The expression level of each gene was normalized by setting the expression level of the well to which 1 nmol/L bFGF was added to 1.

[7] = 1 nmol/L bFGF versus condition without bFGF (negative control)

Substance | Evaluation result of cell proliferative properties Porcine [1] | Evaluation result of cell proliferative properties Avian [2] | Evaluation result of cell proliferative properties Human [3] | Evaluation result of cell proliferative properties Bovine [4] | residual rate of the cyclic peptide [5] [%] | expression level of Nanog [6, 7] | expression level of Oct4 [6, 7] | expression level of Sox2 ([6]; cyclic peptide complex 3 nmol/L or bFGF 1 nmol/L, normalized to 1 nmol/L bFGF = 1, bFGF compared with negative control)
391 (HCSYERLQFHGHEAPFRVKVGHCSYERLQFHGHEAPFRVKV; also: cyclic, closure not given here) [compound 391] | B (The number of viable cells is 200 cells/well or more and less than 400 cells/well.) | A (The number of viable cells is 400 cells/well or more.) | A (The number of viable cells is 400 cells/well or more.) | A (The number of viable cells is 400 cells/well or more.) |  |  |  | 
392 (HCSYERLQFHGHEAPFRVKVHCSYERLQFHGHEAPFRVKV; also: cyclic, closure not given here) [compound 392] | B (The number of viable cells is 200 cells/well or more and less than 400 cells/well.) | B (The number of viable cells is 200 cells/well or more and less than 400 cells/well.) | A (The number of viable cells is 400 cells/well or more.) | A (The number of viable cells is 400 cells/well or more.) |  |  |  | 
395 (CSYERLQFHGHEAPFRVKVCSYERLQFHGHEAPFRVKV; also: cyclic, closure not given here) [compound 395] | B (The number of viable cells is 200 cells/well or more and less than 400 cells/well.) | B (The number of viable cells is 200 cells/well or more and less than 400 cells/well.) | B (The number of viable cells is 200 cells/well or more and less than 400 cells/well.) | A (The number of viable cells is 400 cells/well or more.) |  |  |  | 
396 (CSYERLQFHGHEAPFRVKVCSYERLQFHGHEAPFRVKV; also: cyclic peptide) [compound 396] | B (The number of viable cells is 200 cells/well or more and less than 400 cells/well.) | A (The number of viable cells is 400 cells/well or more.) | A (The number of viable cells is 400 cells/well or more.) | A (The number of viable cells is 400 cells/well or more.) |  |  |  | 
H-(C)-SYERLQFHGHEAPFRV-(K(acetyl))-VKKK [SEQ ID NO: 382] |  |  |  |  | 26 |  |  | 
H-(Hcy)-SYERLQFHGHEAPFRV-(K(acetyl))-VKKK [SEQ ID NO: 374] |  |  |  |  | 32 |  |  | 
bFGF: basic fibroblast growth factor (R&D Systems, 3718-GMP) |  |  |  |  |  | did not change substantially | did not change substantially | changed
